Key:
M2-10B4 = assay: Viability test on mouse fibroblast cell line M2-10B4, 48 h; format: cell-based; settings: for IC50: Mus musculus, M210B4, 48 h, 48 h incubation, mouse fibroblast cell line; for cytotoxic potential on M2-10B4 (in words): mouse fibroblasts
Experimental: (§1) All experiments with hematological cell lines were done using phenol red-free RPMI 1640+L-glutamine (PAA Laboratories) supplemented with 1% PenStrep and 10% FBS gold, except experiments with OCI-Ly7 which were carried out in Gibco IMEM+GlutaMAX and 25 mM HEPES containing 20% FBS gold and 1% PenStrep. Cells were incubated in triplicates with increasing concentrations of the compounds for 48 h, changes in viability were determined using the cell proliferation and cytotoxicity assays EZ4U (Biomedica Group, Austria) and CellTiter-Blue Cell Viability Assay (Promega, Madison, Wis., USA) following instructions of the manufacturers. IC50 values were calculated from two independent experiments using GraphPad Prism 5 software.
Structurally seen, the small molecule compound 1 represents a typical chalcone scaffold. It is characterized by an ortho-ethoxy-substituted phenyl part as ring A and a 2-naphthyl moiety symbolizing ring B. The focus of the present study was to guide the systematic identification of a growth inhibitor with specificity to neoplastic cells, as cytotoxicity towards healthy cells is mostly associated with adverse effects, which can be related to morbidity and mortality of the patient (Milligan D W et al. Brit J Haematol 2006, 135, 450-474). To discriminate in vitro between structural elements necessary for potent cytotoxicity towards tumor cells which, at the same time, clearly show less activity on normal cells, the compounds were additionally tested on the murine bone marrow fibroblast cell line M2-10B4. This cell line is regularly used as feeder layer when cultured with patient cells providing additional support and survival signals in particular in drug screens (Kurtova A V et al. Blood 2009, 114, 4441-4450).
(§2) Initially, compounds were biologically tested in six concentration steps (0.1 μM; 1 μM; 5 μM; 10 μM; 50 μM; and 100 μM) using the CellTiter-Blue Cell Viability Assay (Promega, Madison, Wis., USA) and an incubation time of 48 hours. […] IC50 values were calculated from at least two independent experiments with 3 replicates each. In order to evaluate the biologic activity of the new compounds, cytotoxicity was compared to that of fludarabine, an already approved drug for the treatment of various B-cell malignancies. […] Differences in IC50 values for the different cell types can be explained by the biological and genetic particularities of each subtype of B-cell Non-Hodgkin lymphoma (Stacchini A et al. Leukemia Res 1999, 23, 127-136; Sambade C et al. Int J Cancer 2006, 118, 555-563; Chang H et al. Leukemia lymphoma 1995, 19, 165-171; Tweeddale M E et al. Blood 1987, 69, 1307-1314; Tweeddale M et al. Blood 1989, 74, 572-578).

MEC1 = assay: Viability test (CellTiter-Blue/EZ4U) on MEC1 cells, 48 h; format: cell-based, human; settings: 48 h incubation, nd = no significant cytotoxic activity up to 100 μM
Experimental: (§3) JURKAT and CCRF-CEM (T-cell acute lymphoblastic leukemia), HL60 and K562 representing acute and chronic myeloid leukemia, respectively, the chronic lymphocytic leukemia cell line MEC-1, and the diffuse large B-cell lymphoma cell line U-2940 were cultured in Gibco RPMI 1640+GlutaMAX (Life Technologies, Carlsbad, Calif., USA) supplemented with 10% fetal bovine serum gold (FBS gold; PAA Laboratories, Pasching, Austria) and 1% PenStrep (100 U/ml penicillin and 100 μg/ml streptomycin; PAA Laboratories), and maintained at 37° C. in humidified atmosphere with 5% CO2. The diffuse large B-cell lymphoma cell line OCI-LY7 was cultured in Gibco IMDM+GlutaMAX and 25 mM HEPES (Life Technologies) containing 20% FBS gold and 1% PenStrep.
as §1, §2

OCI-Ly7 = assay: Viability test on OCI-Ly7 cells, 48 h; format: cell-based, human; settings: 48 h incubation, nd = no significant cytotoxic activity up to 100 μM
Experimental: as §3, §1, §2

U-2940 = assay: Viability test on U-2940 cells, 48 h; format: cell-based, human; settings: 48 h incubation, nd = no significant cytotoxic activity up to 100 μM
Experimental: as §3, §1, §2

| Structure (SMILES) | melting point | IC50 (M2-10B4) | IC50 (MEC1) | IC50 (MEC1; Homo sapiens, MEC1, 48 h) | IC50 (OCI-Ly7) | IC50 (OCI-Ly7; Homo sapiens, OCI-Ly7, 48 h) | IC50 (U-2940) | IC50 (U-2940; Homo sapiens, U-2940, 48 h) | cytotoxic potential on M2-10B4 (in words) (M2-10B4) |
| --- | --- | --- | --- | --- | --- | --- | --- | --- | --- |
| CCOc1ccccc1C(=O)/C=C/c1c2ccccc2cc2ccccc12 [Compound 11, 3-(9-Anthranyl)-1-(2-ethoxyphenyl)-2-propen-1-one] | – | > 50 µM | > 100 µM | > 50 µM | > 100 µM | > 50 µM | > 100 µM | > 50 µM | – |
| CCOc1ccccc1C(=O)/C=C/c1csc2ccccc12 [Compound 14, 3-(1-Benzothien-3-yl)-1-(2-ethoxyphenyl)-2-propen-1-one] | – | 8.2 µM | – | 0.17 µM | – | 0.1 µM | – | 0.86 µM | – |
| CCOc1cccc(C(=O)/C=C/c2ccc3ccccc3c2)c1 [Compound 16, 3-(2-Napthyl)-1-(3-ethoxyphenyl)-2-propen-1-one] | 97 to 100 °C | – | – | 2.85 µM | – | 1.76 µM | – | 16.2 µM | – |
| CCCCOc1ccccc1C(=O)/C=C/c1ccc2ccccc2c1 [Compound 4, 1-(2-Butoxyphenyl)-3-(2-naphthyl)-2-propen-1-one] | – | > 100 µM | – | 0.7 µM | – | 0.12 µM | – | 5.31 µM | – |
| CCOc1ccccc1C(=O)/C=C/c1cc2ccccc2c2ccccc12 [Compound 12, 1-(2-Ethoxyphenyl)-3-(9-phenanthrenyl)-2-propen-1-one] | 117 to 120 °C | > 100 µM | – | 1.63 µM | – | – | – | 39.9 µM | – |
| CCOc1ccccc1C(=O)/C=C/c1ccc2cc(OC)ccc2c1 [Compound 7, 1-(2-Ethoxyphenyl)-3-(6-methoxy-2-naphthyl)-2-propen-1-one] | – | > 100 µM | – | 7.16 µM | – | 1.01 µM | – | 24.7 µM | no cytotoxic potential |
| CCCOc1ccccc1C(=O)/C=C/c1ccc2ccccc2c1 [Compound 3, 3-(2-Naphthyl)-1-(2-propoxyphenyl)-2-propen-1-one] | – | > 100 µM | – | 0.13 µM | – | 0.1 µM | – | 5.31 µM | – |
| CCOc1ccccc1C(=O)/C=C/c1ccc(-c2cccs2)s1 [Compound 30, (E)-3-(2,2′-bithiophen-5-yl)-1-(2-ethoxyphenyl)-2-propen-1-one] | – | – | – | 0.02 µM | – | 0.02 µM | – | 3.13 µM | – |
| CCOc1cccc(C(=O)/C=C/c2ccc3c(c2)OCO3)c1 [Compound 34, (E)-3-(1,3-benzodioxol-5-yl)-1-(3-ethoxyphenyl)prop-2-en-1-one] | – | – | – | 8.73 µM | – | 6.35 µM | – | 18.8 µM | – |
| COc1ccccc1C(=O)/C=C/c1ccc2ccccc2c1 [Compound 2, 1-(2-Methoxyphenyl)-3-(2-naphthyl)-2-propen-1-one] | – | 41.8 µM | – | 0.43 µM | – | 0.46 µM | – | 4.09 µM | – |
| Cc1ccccc1C(=O)/C=C/c1ccc2ccccc2c1 [Compound 6, 1-(2-Methylphenyl)-3-(2-naphthyl)-2-propen-1-one] | – | 72 µM | – | 6.36 µM | – | 4.92 µM | – | 10.3 µM | – |
| C=Cc1cccc(/C=C/C(=O)c2ccccc2OCC)c1 [Compound 8, 3-(3-Ethenylphenyl)-1-(2-ethoxyphenyl)-2-propen-1-one] | – | > 100 µM | – | 0.2 µM | – | 0.5 µM | – | 2.5 µM | did not show any activity |

Continued, in another order:

| melting point | Structure (SMILES) | IC50 (M2-10B4) | IC50 (MEC1) | IC50 (MEC1; Homo sapiens, MEC1, 48 h) | IC50 (OCI-Ly7) | IC50 (OCI-Ly7; Homo sapiens, OCI-Ly7, 48 h) | IC50 (U-2940) | IC50 (U-2940; Homo sapiens, U-2940, 48 h) | cytotoxic potential on M2-10B4 (in words) (M2-10B4) |
| --- | --- | --- | --- | --- | --- | --- | --- | --- | --- |
| 114 to 116 °C | CCCOc1ccccc1C(=O)/C=C/c1ccc2[nH]ccc2c1 [Compound 25, (E)-3-(1H-indol-5-yl)-1-(2-propoxyphenyl)-2-propen-1-one] | – | – | 0.14 µM | – | 0.12 µM | – | 7.1 µM | – |
| 98 to 99 °C | CCOc1cccc(C(=O)/C=C/c2ccc3sccc3c2)c1 [Compound 28] | – | – | 5.48 µM | – | 4.78 µM | – | 12.9 µM | – |
| 178 to 181 °C | CCOc1ccc(C(=O)/C=C/c2cc3ccccc3[nH]2)cc1 [Compound 21, 1-(4-Ethoxyphenyl)-3-(1H-indole-2-yl)-2-propen-1-one] | – | – | – | – | 25.3 µM | – | – | – |
| 79 to 81 °C | CCOc1ccccc1C(=O)/C=C/c1cc2ccccc2o1 [Compound 31, (E)-3-(1-Benzofuran-2-yl)-1-(2-ethoxyphenyl)-2-propen-1-one] | – | – | 0.2 µM | – | 0.05 µM | – | 7.1 µM | – |
| 151 to 153 °C | CCOc1ccccc1C(=O)/C=C/c1ccc2[nH]ccc2c1 [Compound 22, (E)-1-(2-Ethoxyphenyl)-3-(1H-indol-5-yl)-2-propen-1-one] | – | – | 0.05 µM | – | 0.03 µM | – | 1.71 µM | – |
| 95 to 98 °C | CCOc1ccccc1C(=O)/C=C/c1cc2ccccc2s1 [Compound 27, (E)-3-(1-Benzothiophen-2-yl)-1-(2-ethoxyphenyl)-2-propen-1-one] | – | – | 0.06 µM | – | 0.07 µM | – | 2.31 µM | – |
| 103 to 106 °C | CCOc1cccc(C(=O)/C=C/c2csc3ccccc23)c1 [Compound 18, 3-(1-Benzothien-3-yl)-1-(3-ethoxyphenyl)-2-propen-1-one] | – | – | 2.21 µM | – | 1.67 µM | – | 7.59 µM | – |
| 156 to 158 °C | CCOc1cccc(C(=O)/C=C/c2cc3ccccc3[nH]2)c1 [Compound 20, 1-(3-Ethoxyphenyl)-3-(1H-indole-2-yl)-2-propen-1-one] | – | – | 3.33 µM | – | 4.83 µM | – | – | – |
| 129 to 130 °C | CCOc1ccc(C(=O)/C=C/c2csc3ccccc23)cc1 [Compound 19, 3-(1-Benzothien-3-yl)-1-(4-ethoxyphenyl)-2-propen-1-one] | – | – | 7.5 µM | – | 4.77 µM | – | 14.6 µM | – |
| 112 to 114 °C | CCCOc1ccccc1C(=O)/C=C/c1cc2ccccc2[nH]1 [Compound 26, (E)-3-(1H-indol-2-yl)-1-(2-propoxyphenyl)-2-propen-1-one] | – | – | 0.04 µM | – | 0.08 µM | – | 10.1 µM | – |
| 171 to 173 °C | CCOc1ccc(C(=O)/C=C/c2ccc3[nH]ccc3c2)cc1 [Compound 24, (E)-1-(4-Ethoxyphenyl)-3-(1H-indol-5-yl)-2-propen-1-one] | – | – | 26.6 µM | – | 15.9 µM | – | 50 µM | – |
| 159 to 161 °C | CCOc1ccc(C(=O)/C=C/c2ccc3ccccc3c2)cc1 [Compound 17, 3-(2-Napthyl)-1-(4-ethoxyphenyl)-2-propen-1-one] | – | – | – | – | – | – | – | – |
| 121 to 123 °C | CCOc1cccc(C(=O)/C=C/c2ccc3[nH]ccc3c2)c1 [Compound 23, (E)-1-(3-Ethoxyphenyl)-3-(1H-indol-5-yl)-2-propen-1-one] | – | – | 2.6 µM | – | 1.47 µM | – | 10 µM | – |
| 127 to 129 °C | CCOc1cccc(C(=O)/C=C/c2cc3ccccc3o2)c1 [Compound 32, (E)-3-(1-Benzofuran-2-yl)-1-(3-ethoxyphenyl)-2-propen-1-one] | – | – | 6.91 µM | – | 16.7 µM | – | 44.3 µM | – |
| 149 to 151 °C | CCOc1ccc(C(=O)/C=C/c2ccc3sccc3c2)cc1 [Compound 29] | – | – | 231 µM | – | – | – | – | – |
| 100 to 101 °C | CCOc1ccc(C(=O)/C=C/c2cc3ccccc3o2)cc1 [Compound 33, (E)-3-(1-Benzofuran-2-yl)-1-(4-ethoxyphenyl)-2-propen-1-one] | – | – | 38.8 µM | – | 19.5 µM | – | 42.2 µM | – |

Source: patent US10280156B2, “Heteroaromatic chalcone derivatives and their medical use” (Medizinische Universität Wien, priority 2014, dated 2019)
